Experiments:
thyroid peroxidase (TPO) = target: T1, thyroid peroxidase (TPO) (Homo sapiens, UniProt P07202); assay: guaiacol oxidation assay with digitonin-extracted recombinant TPO; format: cell-based
T1 sequence (P07202 19-933): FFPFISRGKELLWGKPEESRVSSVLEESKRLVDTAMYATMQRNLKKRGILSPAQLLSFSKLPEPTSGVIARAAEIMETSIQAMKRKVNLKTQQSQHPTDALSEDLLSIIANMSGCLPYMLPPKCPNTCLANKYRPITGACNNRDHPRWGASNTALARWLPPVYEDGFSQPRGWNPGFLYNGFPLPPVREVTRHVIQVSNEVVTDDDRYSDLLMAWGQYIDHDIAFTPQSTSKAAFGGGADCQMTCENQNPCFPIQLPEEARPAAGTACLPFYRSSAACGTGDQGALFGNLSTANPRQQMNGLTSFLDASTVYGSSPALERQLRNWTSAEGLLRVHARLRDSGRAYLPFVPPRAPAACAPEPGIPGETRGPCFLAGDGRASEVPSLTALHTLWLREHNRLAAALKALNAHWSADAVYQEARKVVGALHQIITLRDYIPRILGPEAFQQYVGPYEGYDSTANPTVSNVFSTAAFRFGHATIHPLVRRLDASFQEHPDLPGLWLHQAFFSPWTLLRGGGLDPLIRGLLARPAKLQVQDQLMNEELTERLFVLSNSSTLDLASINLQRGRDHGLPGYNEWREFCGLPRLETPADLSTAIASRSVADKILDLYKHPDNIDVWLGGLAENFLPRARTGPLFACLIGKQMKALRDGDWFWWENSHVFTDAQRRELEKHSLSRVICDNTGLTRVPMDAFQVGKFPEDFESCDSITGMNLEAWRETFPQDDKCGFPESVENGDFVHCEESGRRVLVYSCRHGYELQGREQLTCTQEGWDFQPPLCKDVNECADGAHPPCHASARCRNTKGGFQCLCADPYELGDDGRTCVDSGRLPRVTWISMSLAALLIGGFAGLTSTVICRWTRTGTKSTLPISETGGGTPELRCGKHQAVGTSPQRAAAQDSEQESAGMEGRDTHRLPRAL

transthyretin (TTR) = transthyretin (TTR) (Homo sapiens, UniProt P02766); assay: […]T4 displacement; format: binding; details: cited from earlier work

Row | Structure (SMILES) | IC50 (thyroid peroxidase (TPO)) | IC50 (transthyretin (TTR))
1 | CC(C)(c1ccc(O)cc1)c1ccc(O)cc1 [bisphenol A] | the industrial chemicals 4-NP and BPA also inhibited TPO | –
2 | O=c1c(-c2ccc(O)cc2)coc2cc(O)ccc12 [daidzein] | – | 1800 nM
3 | O=c1c(-c2ccc(O)cc2)coc2cc(O)cc(O)c12 [genistein] | – | 70 nM
4 | COc1cc2c(=O)c(-c3ccc(O)cc3)coc2cc1O [glycitein] | – | 200 nM

Reference: PMC2174406 (Environmental Health Perspectives, 2007)
